Experimental data as given in US20100298141A1, “SUBSTITUTED PYRIDINE N-OXIDE HERBICIDES” (E. I. DU PONT DE NEMOURS AND COMPANY, priority 2007, published 2010).

Key:
Assay in all cases: Test F preemergence test
[1] = tested on: prickly sida; format: in vivo, Sida spinosa; conditions: scale 0 to 100
From the text: (§1) Seeds of plant species selected from bermudagrass (Cynodon dactylon), Surinam grass (Brachiaria decumbens), large crabgrass (Digitaria sanguinalis), green foxtail (Setaria viridis), goosegrass (Eleusine indica), johnsongrass (Sorghum halepense), kochia (Kochia scoparia), pitted morningglory (Ipomoea lacunosa), purple nutsedge (Cyperus rotundus), common ragweed (Ambrosia elation), mustard (Brassica nigra), guineagrass (Panicum maximum), […] (Paspalum dilatatum), barnyardgrass (Echinochloa crus-galli), southern sandbur (Cenchrus echinatus), common sowthistle (Sonchus oleraceous), prickly […] spinosa), Italian ryegrass (Lolium multiflorum), common purslane (Portulaca oleracea), broadleaf signalgrass (Brachiaria platyphylla), common groundsel (Senecio vulgaris), common chickweed (Stellaria media), Virginia dayflower (Commelina virginica), annual bluegrass (Poa annua), naked crabgrass (Digitaria nuda), […] cochinchinensis), quackgrass (Elytrigia repens), Canada horseweed (Conyza canadensis), field bindweed (Convolvulus arvensis), […] (Bidens bipinnata), common mallow (Malva sylvestris), Russian thistle (Salsola kali), and sugarcane (Saccharum officinarum) were planted and treated preemergence with test chemicals formulated in a non-phytotoxic solvent mixture which included a surfactant. At a different time, sugarcane was treated with postemergence applications of some of the test chemicals formulated in the same manner. Plants were approximately 3- to 4-leaf stage for the postemergence treatments. Treated plants and controls were maintained in a greenhouse for 14 to 21 days, after which time all species were compared to controls and visually evaluated. […] A dash (-) response means no test result.

[2] = tested on: southern sandbur; format: in vivo, Cenchrus echinatus; conditions: scale 0 to 100; for Sandbur plant response rating: 125 g ai/ha
From the text: as §1

[3] = tested on: Surinam grass; format: in vivo, Brachiaria decumbens; conditions: scale 0 to 100; for Surinam Grass plant response rating: 125 g ai/ha, preemergence; for Plant response rating, Surinam Grass: Preemergence
From the text: as §1

[4] = tested on: Italian ryegrass; format: in vivo, Lolium multiflorum; conditions: scale 0 to 100; for Ryegrass, Italian plant response rating: 125 g ai/ha
From the text: as §1

[5] = tested on: field bindweed; format: in vivo, Convolvulus arvensis; conditions: scale 0 to 100
From the text: as §1

[6] = tested on: goosegrass; format: in vivo, Eleusine indica; conditions: scale 0 to 100
From the text: as §1

[7] = tested on: johnsongrass; format: in vivo, Sorghum halepense; conditions: scale 0 to 100
From the text: as §1

[8] = tested on: common purslane; format: in vivo, Portulaca oleracea; conditions: scale 0 to 100
From the text: as §1

[9] = tested on: broadleaf signalgrass; format: in vivo, Brachiaria platyphylla; conditions: scale 0 to 100; for Signalgrass plant response rating: 125 g ai/ha
From the text: as §1

[10] = tested on: purple nutsedge; format: in vivo, Cyperus rotundus; conditions: scale 0 to 100
From the text: as §1

[11] = tested on: naked crabgrass; format: in vivo, Digitaria nuda; conditions: scale 0 to 100
From the text: as §1

[12] = tested on: guineagrass; format: in vivo, Panicum maximum; conditions: scale 0 to 100
From the text: as §1

[13] = tested on: bermudagrass; format: in vivo, Cynodon dactylon; conditions: scale 0 to 100
From the text: as §1

[14] = tested on: common ragweed; format: in vivo, Ambrosia elation; conditions: scale 0 to 100
From the text: as §1

[15] = tested on: itchgrass; format: in vivo, Rottboellia cochinchinensis; conditions: scale 0 to 100
From the text: as §1

Cc1cc([S+]([O-])Cc2c(C(F)(F)F)nn(C)c2OCC(F)(F)F)[n+]([O-])cc1Cl (stereo not drawn) [Compound 70]
Plant response rating, Prickly Sida ([1]; 16 g ai/ha, preemergence): 60
Prickly Sida plant response rating ([1]; 62 g ai/ha, Preemergence): 90
Prickly Sida plant response rating ([1]; 125 g ai/ha, preemergence): 90
Plant response rating, Prickly Sida ([1]; Preemergence, 31 g ai/ha): 80
Plant response rating, Sandbur ([2]; 16 g ai/ha, preemergence): 65
Sandbur plant response rating ([2]; preemergence): 100
Plant response rating, Sandbur ([2]; Preemergence, 62 g ai/ha): 75
Surinam Grass plant response rating [3]: 100
Plant response rating, Surinam Grass ([3]; 62 g ai/ha): 98
Plant response rating, Surinam Grass ([3]; 31 g ai/ha): 40
Ryegrass, Italian plant response rating ([4]; preemergence): 100
Plant response rating, Ryegrass, Italian ([4]; Preemergence, 62 g ai/ha): 100
Plant response rating, Ryegrass, Italian ([4]; Preemergence, 31 g ai/ha): 75
Plant response rating, Field Bindweed ([5]; 16 g ai/ha, preemergence): 40
Field Bindweed plant response rating ([5]; 62 g ai/ha, Preemergence): 40
Field Bindweed plant response rating ([5]; 125 g ai/ha, preemergence): 40
Plant response rating, Field Bindweed ([5]; Preemergence, 31 g ai/ha): 40
Plant response rating, Goosegrass ([6]; 16 g ai/ha, preemergence): 60
Goosegrass plant response rating ([6]; 62 g ai/ha, Preemergence): 80
Goosegrass plant response rating ([6]; 125 g ai/ha, preemergence): 100
Plant response rating, Goosegrass ([6]; Preemergence, 31 g ai/ha): 80
Plant response rating, Johnsongrass ([7]; 16 g ai/ha, preemergence): 90
Johnsongrass plant response rating ([7]; 62 g ai/ha, Preemergence): 100
Johnsongrass plant response rating ([7]; 125 g ai/ha, preemergence): 100
Plant response rating, Johnsongrass ([7]; Preemergence, 31 g ai/ha): 90
Purslane plant response rating ([8]; 62 g ai/ha, Preemergence): 75
Purslane plant response rating ([8]; 125 g ai/ha, preemergence): 75
Plant response rating, Purslane ([8]; Preemergence, 31 g ai/ha): 35
Signalgrass plant response rating ([9]; preemergence): 90
Plant response rating, Signalgrass ([9]; Preemergence, 62 g ai/ha): 90
Plant response rating, Purple Nutsedge ([10]; 16 g ai/ha, preemergence): 0
Purple Nutsedge plant response rating ([10]; 62 g ai/ha, Preemergence): 20
Purple Nutsedge plant response rating ([10]; 125 g ai/ha, preemergence): 40
Plant response rating, Purple Nutsedge ([10]; Preemergence, 31 g ai/ha): 15
Plant response rating, Crabgrass, Naked ([11]; 16 g ai/ha, preemergence): 90
Crabgrass, Naked plant response rating ([11]; 62 g ai/ha, Preemergence): 100
Crabgrass, Naked plant response rating ([11]; 125 g ai/ha, preemergence): 100
Plant response rating, Crabgrass, Naked ([11]; Preemergence, 31 g ai/ha): 90
Plant response rating, Guineagrass ([12]; 16 g ai/ha, preemergence): 100
Guineagrass plant response rating ([12]; 62 g ai/ha, Preemergence): 100
Guineagrass plant response rating ([12]; 125 g ai/ha, preemergence): 100
Plant response rating, Guineagrass ([12]; Preemergence, 31 g ai/ha): 100
Plant response rating, Bermudagrass ([13]; 16 g ai/ha, preemergence): 40
Bermudagrass plant response rating ([13]; 62 g ai/ha, Preemergence): 98
Bermudagrass plant response rating ([13]; 125 g ai/ha, preemergence): 100
Plant response rating, Bermudagrass ([13]; Preemergence, 31 g ai/ha): 80
Plant response rating, Ragweed ([14]; 16 g ai/ha, preemergence): 60
Plant response rating, Ragweed ([14]; Preemergence, 62 g ai/ha): 80
Plant response rating, Ragweed ([14]; Preemergence, 31 g ai/ha): 60
Plant response rating, Itchgrass ([15]; 16 g ai/ha, preemergence): 80
Itchgrass plant response rating ([15]; 62 g ai/ha, Preemergence): 80
Itchgrass plant response rating ([15]; 125 g ai/ha, preemergence): 100
Plant response rating, Itchgrass ([15]; Preemergence, 31 g ai/ha): 80

Cn1nc(C(F)(F)C(F)(F)F)c(C[S+]([O-])c2cccc[n+]2[O-])c1OCC(F)(F)F (stereo not drawn) [Compound 79]
Plant response rating, Prickly Sida ([1]; 16 g ai/ha, preemergence): 0
Prickly Sida plant response rating ([1]; 62 g ai/ha, Preemergence): 100
Prickly Sida plant response rating ([1]; 125 g ai/ha, preemergence): 100
Plant response rating, Prickly Sida ([1]; Preemergence, 31 g ai/ha): 20
Sandbur plant response rating ([2]; preemergence): 95
Plant response rating, Sandbur ([2]; Preemergence, 62 g ai/ha): 95
Plant response rating, Sandbur ([2]; Preemergence, 31 g ai/ha): 35
Surinam Grass plant response rating [3]: 100
Plant response rating, Surinam Grass ([3]; 62 g ai/ha): 100
Plant response rating, Surinam Grass ([3]; 31 g ai/ha): 30
Plant response rating, Ryegrass, Italian ([4]; 16 g ai/ha, preemergence): 0
Ryegrass, Italian plant response rating ([4]; preemergence): 100
Plant response rating, Ryegrass, Italian ([4]; Preemergence, 62 g ai/ha): 100
Plant response rating, Ryegrass, Italian ([4]; Preemergence, 31 g ai/ha): 65
Plant response rating, Field Bindweed ([5]; 16 g ai/ha, preemergence): 60
Field Bindweed plant response rating ([5]; 62 g ai/ha, Preemergence): 80
Field Bindweed plant response rating ([5]; 125 g ai/ha, preemergence): 95
Plant response rating, Field Bindweed ([5]; Preemergence, 31 g ai/ha): 70
Plant response rating, Goosegrass ([6]; 16 g ai/ha, preemergence): 20
Goosegrass plant response rating ([6]; 62 g ai/ha, Preemergence): 98
Goosegrass plant response rating ([6]; 125 g ai/ha, preemergence): 100
Plant response rating, Goosegrass ([6]; Preemergence, 31 g ai/ha): 75
Plant response rating, Johnsongrass ([7]; 16 g ai/ha, preemergence): 0
Johnsongrass plant response rating ([7]; 62 g ai/ha, Preemergence): 90
Johnsongrass plant response rating ([7]; 125 g ai/ha, preemergence): 100
Plant response rating, Johnsongrass ([7]; Preemergence, 31 g ai/ha): 50
Plant response rating, Purslane ([8]; 16 g ai/ha, preemergence): 30
Purslane plant response rating ([8]; 62 g ai/ha, Preemergence): 60
Purslane plant response rating ([8]; 125 g ai/ha, preemergence): 100
Plant response rating, Purslane ([8]; Preemergence, 31 g ai/ha): 40
Plant response rating, Signalgrass ([9]; 16 g ai/ha, preemergence): 0
Signalgrass plant response rating ([9]; preemergence): 100
Plant response rating, Signalgrass ([9]; Preemergence, 62 g ai/ha): 30
Plant response rating, Signalgrass ([9]; Preemergence, 31 g ai/ha): 0
Plant response rating, Purple Nutsedge ([10]; 16 g ai/ha, preemergence): 0
Purple Nutsedge plant response rating ([10]; 62 g ai/ha, Preemergence): 0
Purple Nutsedge plant response rating ([10]; 125 g ai/ha, preemergence): 60
Plant response rating, Purple Nutsedge ([10]; Preemergence, 31 g ai/ha): 0
Plant response rating, Crabgrass, Naked ([11]; 16 g ai/ha, preemergence): 0
Crabgrass, Naked plant response rating ([11]; 62 g ai/ha, Preemergence): 100
Crabgrass, Naked plant response rating ([11]; 125 g ai/ha, preemergence): 100
Plant response rating, Crabgrass, Naked ([11]; Preemergence, 31 g ai/ha): 40
Plant response rating, Guineagrass ([12]; 16 g ai/ha, preemergence): 0
Guineagrass plant response rating ([12]; 62 g ai/ha, Preemergence): 100
Guineagrass plant response rating ([12]; 125 g ai/ha, preemergence): 100
Plant response rating, Guineagrass ([12]; Preemergence, 31 g ai/ha): 95
Plant response rating, Bermudagrass ([13]; 16 g ai/ha, preemergence): 10
Bermudagrass plant response rating ([13]; 62 g ai/ha, Preemergence): 100
Bermudagrass plant response rating ([13]; 125 g ai/ha, preemergence): 100
Plant response rating, Bermudagrass ([13]; Preemergence, 31 g ai/ha): 65
Plant response rating, Ragweed ([14]; 16 g ai/ha, preemergence): 95
Ragweed plant response rating ([14]; 125 g ai/ha, preemergence): 100
Plant response rating, Ragweed ([14]; Preemergence, 62 g ai/ha): 100
Plant response rating, Ragweed ([14]; Preemergence, 31 g ai/ha): 100
Plant response rating, Itchgrass ([15]; 16 g ai/ha, preemergence): 0
Itchgrass plant response rating ([15]; 62 g ai/ha, Preemergence): 75
Itchgrass plant response rating ([15]; 125 g ai/ha, preemergence): 95
Plant response rating, Itchgrass ([15]; Preemergence, 31 g ai/ha): 75
